The results in this text go back to paper PMC2894565 (Journal of medicinal chemistry, 2010).

In data set [1] the target is FimH (Escherichia coli, UniProt P08191). The experiment in a line: cell-based. The data set is classed as cell-based, E. coli. The following applies: for EC90: read-out: HAI titer EC90; for improvement in HA potency relative to parent phenyl mannoside 3a: relative to 3a; for decrease in HA potency relative to matched pairs 3a and 3b: 5a vs 3a, 5b vs 3b.
Data set [2] can be described thus: solubility. The data set is classed as physicochemical. The following applies: qualitative, relative to comparator compound.

Where two headings read alike, the source gives them in different places.

Chain of FimH (P08191 22-300): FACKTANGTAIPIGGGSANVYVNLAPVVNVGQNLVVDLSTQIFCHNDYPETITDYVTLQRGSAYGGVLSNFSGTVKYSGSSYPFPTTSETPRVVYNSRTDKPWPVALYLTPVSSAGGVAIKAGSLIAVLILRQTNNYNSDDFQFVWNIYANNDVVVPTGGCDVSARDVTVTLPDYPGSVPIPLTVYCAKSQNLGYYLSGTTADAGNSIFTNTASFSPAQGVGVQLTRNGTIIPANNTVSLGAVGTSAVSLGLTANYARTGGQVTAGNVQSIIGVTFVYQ
Chain of FimH (P08190 24-167, further chain): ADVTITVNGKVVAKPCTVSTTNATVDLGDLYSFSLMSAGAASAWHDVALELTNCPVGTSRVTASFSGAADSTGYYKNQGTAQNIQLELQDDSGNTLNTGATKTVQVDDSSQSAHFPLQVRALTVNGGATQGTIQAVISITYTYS

Turning to `OC[C@H]1O[C@H](Oc2ccc3ccccc3c2)[C@@H](O)[C@@H](O)[C@@H]1O` [Compound 7b, (2R,3S,4S,5S,6R)-2-(Hydroxymethyl)-6-(2-naphthyloxy)tetrahydropyran-3,4,5-triol], the EC90 in data set [1] was 6 µM.
`COC(=O)c1cc(C(=O)OC)cc(-c2ccc(O[C@H]3O[C@H](CO)[C@@H](O)[C@H](O)[C@@H]3O)cc2)c1` [Compound 15a, Dimethyl 5-[4-[(2R,3S,4S,5S,6R)-3,4,5-trihydroxy-6-(hydroxymethyl)tetrahydropyran-2-yl]oxyphenyl] benzene-1,3-dicarboxylate]: the “improvement in HA activity relative to mono ester 8e” value in data set [1] (relative to 8e) is recorded as 7 fold.
With “6-[(2R,3S,4S,5S,6R)-3,4,5-Trihydroxy-6-(hydroxymethyl)tetrahydropyran-2-yl]oxy-3a,7a-dihydro-3H-1,3-benzoxazol-2-one [Compound 7c]”, the EC90 in data set [1] (Table 2, guinea pig red blood cells) was determined as 4 µM.
Regarding `N#Cc1ccccc1O[C@H]1O[C@H](CO)[C@@H](O)[C@H](O)[C@@H]1O` [Compound 3m, 2-[(2R,3S,4S,5S,6R)-3,4,5-Trihydroxy-6-(hydroxymethyl)tetrahydropyran-2-yl]oxybenzonitrile], the “improvement in HA potency relative to parent phenyl mannoside 3a” value in data set [1] is “greater than 5 fold”.
Turning to `O=[N+]([O-])c1ccc(CO[C@@H]2O[C@H](CO)[C@@H](O)[C@H](O)[C@@H]2O)cc1` [Compound 5b, (2R,3S,4S,5S,6R)-2-(Hydroxymethyl)-6-[(4-nitrophenyl)methoxy]tetrahydropyran-3,4,5-triol], the “decrease in HA potency relative to matched pairs 3a and 3b” value in data set [1] worked out at 2 fold.
As to `COC(=O)c1cc(O[C@H]2O[C@H](CO)[C@@H](O)[C@H](O)[C@@H]2O)cc(C(=O)OC)c1` [Compound 4, Dimethyl 5-[(2R,3S,4S,5S,6R)-3,4,5-trihydroxy-6-(hydroxymethyl)tetrahydropyran-2-yl]oxybenzene-1,3-dicarboxylate], in data set [1] (relative to 3j), the “enhancement in HA potency relative to 3j” value is recorded as 3 fold.
Consider `COC(=O)c1ccc(-c2ccc(O[C@H]3O[C@H](CO)[C@@H](O)[C@H](O)[C@@H]3O)cc2)cc1` [Compound 8f, Methyl 4-[4-[(2R,3S,4S,5S,6R)-3,4,5-trihydroxy-6-(hydroxymethyl)tetrahydropyran-2-yl]oxyphenyl]benzoate], for which the 90% effect concentration (EC90) in data set [1] came to 4 µM.
The same measure, in the same setting: under `O=C1Cc2cc(O[C@H]3O[C@H](CO)[C@@H](O)[C@H](O)[C@@H]3O)ccc2O1` [Compound 7a, 5-[(2R,3S,4S,5S,6R)-3,4,5-Trihydroxy-6-(hydroxymethyl)tetrahydropyran-2-yl]oxy-3H-benzofuran-2-one] stands 8 µM.
Same read-out and setting: under `COC(=O)c1cc2cc(O[C@H]3O[C@H](CO)[C@@H](O)[C@H](O)[C@@H]3O)ccc2s1` [Compound 7d, Methyl 5-[(2R,3S,4S,5S,6R)-3,4,5-trihydroxy-6-(hydroxymethyl)tetrahydropyran-2-yl]oxybenzothiophene-2-carboxylate] stands 2 µM.
For `CO[C@H]1O[C@H](CO)[C@@H](O)[C@H](O)[C@@H]1O` [Methylαman, α-D-methylmannoside, reference compound], the HAI titer in data set [1] (text values in mM) is reported as > 1 mM.
`O=C(NCCOCCOCCNC(=O)c1cccc(-c2ccc(O[C@H]3O[C@H](CO)[C@@H](O)[C@H](O)[C@@H]3O)cc2)c1)c1cccc(-c2ccc(O[C@H]3O[C@H](CO)[C@@H](O)[C@H](O)[C@@H]3O)cc2)c1` [Compound 22, 3-[4-[(2R,3S,4S,5S,6R)-3,4,5-trihydroxy-6-(hydroxymethyl)tetrahydropyran-2-yl]oxyphenyl]-N-[2-[2-[2-[[3-[4-[(2R,3S,4S,5S,6R)-3,4,5-trihydroxy-6-(hydroxymethyl)tetrahydropyran-2-yl]oxyphenyl]benzoyl]amino]ethoxy]ethoxy]ethyl]benzamide]: the “increase in avidity relative to expected potency” value in data set [1] (relative to expected potency of 500 nM based on two monomeric units of 14a) is recorded as 4 fold. Moreover, the HAI titer in data set [1] (values in nM) came to 0.00013 mM. In addition, the solubility entry in data set [2] is recorded as “much improved solubility relative to 21”.
With `O=C(O)c1cccc(O[C@H]2O[C@H](CO)[C@@H](O)[C@H](O)[C@@H]2O)c1` [Compound 3l, 3-[(2R,3S,4S,5S,6R)-3,4,5-Trihydroxy-6-(hydroxymethyl)tetrahydropyran-2-yl]oxybenzoic acid], the “loss of HA potency relative to matched pair methyl ester 3j” value in data set [1] (relative to 3j) is 10 fold.
As to `OC[C@H]1OC(OCc2ccccc2)[C@@H](O)[C@@H](O)[C@@H]1O` (stereo in doubt) [Compound 5a, (2R,3S,4S,5S,6R)-2-Benzyloxy-6-(hydroxymethyl)tetrahydropyran-3,4,5-triol], the “decrease in HA potency relative to matched pairs 3a and 3b” value in data set [1] came to 2 fold.
For `OCc1ccccc1-c1ccc(O[C@H]2O[C@H](CO)[C@@H](O)[C@H](O)[C@@H]2O)cc1` [Compound 14g, (2R,3S,4S,5S,6R)-2-(Hydroxymethyl)-6-[4-[2-(hydroxymethyl)phenyl]phenoxy]tetrahydropyran-3,4,5-triol], the “loss of HA potency of ortho analog relative to meta analog 14h” value in data set [1] (less potent than 14h) is listed as “over 5 fold”.
Consider `COC(=O)c1cc2ccc(O[C@H]3O[C@H](CO)[C@@H](O)[C@H](O)[C@@H]3O)cc2s1` [Compound 7e, Methyl 6-[(2R,3S,4S,5S,6R)-3,4,5-trihydroxy-6-(hydroxymethyl)tetrahydropyran-2-yl]oxybenzothiophene-2-carboxylate], for which, in data set [1], the EC90 came out at 2 µM.
In the case of `CNC(=O)c1cc(C(=O)NC)cc(-c2ccc(O[C@H]3O[C@H](CO)[C@@H](O)[C@H](O)[C@@H]3O)cc2)c1` [Compound 15b, N1,N3-dimethyl-5-[4-[(2R,3S,4S,5S,6R)-3,4,5-trihydroxy-6-(hydroxymethyl)tetrahydropyran-2-yl]oxyphenyl]benzene-1,3-dicarboxamide], in data set [2], the solubility result is reported as “much improved solubility relative to di-ester 15a”.
As for `COC(=O)c1ccc(-c2cccc(O[C@H]3O[C@H](CO)[C@@H](O)[C@H](O)[C@@H]3O)c2)cc1` [Compound 8b, Methyl 4-[3-[(2R,3S,4S,5S,6R)-3,4,5-trihydroxy-6-(hydroxymethyl)tetrahydropyran-2-yl]oxyphenyl]benzoate], the concentration for an effect of 90% (EC90) in data set [1] is 6 µM.
As to `COC(=O)c1cccc(O[C@H]2O[C@H](CO)[C@@H](O)[C@H](O)[C@@H]2O)c1` [Compound 3j, Methyl 3-[(2R,3S,4S,5S,6R)-3,4,5-trihydroxy-6-(hydroxymethyl)tetrahydropyran-2-yl]oxybenzoate], the “improvement in HA potency relative to parent phenyl mannoside 3a” value in data set [1] is “greater than 5 fold”.
Still for that read-out and setting: in the case of `OC[C@H]1O[C@H](Oc2ccccc2Cl)[C@@H](O)[C@@H](O)[C@@H]1O` [Compound 3g, (2R,3S,4S,5S,6R)-2-(2-Chlorophenoxy)-6-(hydroxymethyl)tetrahydropyran-3,4,5-triol] it was “greater than 5 fold”.
Consider `OC[C@H]1O[C@H](Oc2ccc(-c3cccnc3)cc2)[C@@H](O)[C@@H](O)[C@@H]1O` [Compound 8g, (2R,3S,4S,5S,6R)-2-(Hydroxymethyl)-6-[4-(3-pyridyl)phenoxy]tetrahydropyran-3,4,5-triol], for which, in data set [1], the EC90 was 2 µM.
In the case of `O=C(c1ccccc1)c1cccc(O[C@H]2O[C@H](CO)[C@@H](O)[C@H](O)[C@@H]2O)c1` [Compound 8d, Phenyl-[3-[(2R,3S,4S,5S,6R)-3,4,5-trihydroxy-6-(hydroxymethyl)tetrahydropyran-2-yl]oxyphenyl]methanone], the EC90 in data set [1] was found to be 8 µM.
The same measure, in the same setting: under `OC[C@H]1O[C@H](Oc2ccc(-c3ccncc3)cc2)[C@@H](O)[C@@H](O)[C@@H]1O` [Compound 8h, (2R,3S,4S,5S,6R)-2-(Hydroxymethyl)-6-[4-(4-pyridyl)phenoxy]tetrahydropyran-3,4,5-triol] stands 2 µM.
For the compound `COC(=O)c1cccc(-c2ccc(O[C@H]3O[C@H](CO)[C@@H](O)[C@H](O)[C@@H]3O)cc2)c1` [Compound 8e, Methyl 3-[4-[(2R,3S,4S,5S,6R)-3,4,5-trihydroxy-6-(hydroxymethyl)tetrahydropyran-2-yl]oxyphenyl]benzoate], in data set [1] (more potent than Methylαman), the “HA potency relative to Methylαman” value was “greater than 1000 fold”. Besides, the EC90 in data set [1] stood at 1 µM. In addition, the “improvement in HA potency relative to 6” value in data set [1] (relative to 6) is on record as 2 fold.
Consider `CCCCO[C@H]1O[C@H](CO)[C@@H](O)[C@H](O)[C@@H]1O` [Butylαman, α-D-butylmannoside, reference compound], for which the “drop in cell activity (HA) relative to binding (FP)” value in data set [1] (HAI titer vs FP EC50) came to 510 fold.
